Measured values taken from ChEMBL document CHEMBL3885881, “DrugMatrix”.

Organism: Rattus norvegicus
Assay: DrugMatrix - Regimen: Daily Repeat
Assay type: toxicity, organism-based, Sprague-Dawley
Design: regimen Daily Repeat, gender Male, age 6-8 weeks
Conditions: in vivo, po, route oral GAVAGE, […]; for ABSOLUTE BASOPHIL / ABSOLUTE EOSINOPHIL / ABSOLUTE LYMPHOCYTE / ABSOLUTE MONOCYTE / ABSOLUTE SEGMENTED NEUTROPHIL / BASOPHIL / EOSINOPHIL / ERYTHROCYTE COUNT / HEMATOCRIT / HEMOGLOBIN / LEUKOCYTE COUNT / LYMPHOCYTE / MEAN CORPUSCULAR HEMOGLOBIN / MEAN CORPUSCULAR HEMOGLOBIN CONCENTRATION / MEAN CORPUSCULAR VOLUME / MONOCYTE / NEUTROPHIL / NUCLEATED RED BLOOD CELLS / PLATELET COUNT: tissue Blood; for ALANINE AMINOTRANSFERASE / ALBUMIN / ALKALINE PHOSPHATASE / ASPARTATE AMINOTRANSFERASE / BLOOD UREA NITROGEN / CARBON DIOXIDE / CHLORIDE / CHOLESTEROL / CREATININE / GLUCOSE / LACTATE DEHYDROGENASE / LIPASE / PHOSPHORUS / POTASSIUM / SODIUM / TOTAL BILIRUBIN / TOTAL PROTEIN / URIC ACID: tissue Plasma
[1] = 250 mg/kg, 120 h, dose level Low, time 5 day
[2] = 500 mg/kg, 72 h, dose level High, time 3 day
[3] = 500 mg/kg, 120 h, dose level High, time 5 day

With CC(C)Cc1ccc(CC(=O)O)cc1 [IBUFENAC] as the molecule, how does the “ABSOLUTE BASOPHIL” value [1] read?
The value was 0 CELLS/uL.

And the “ABSOLUTE EOSINOPHIL” value [1]?
Its value is 236.67 CELLS/uL.

And the “ABSOLUTE LYMPHOCYTE” value [1]?
The value was 15018.67 CELLS/uL.

And the “ABSOLUTE MONOCYTE” value [1]?
Its value is 455.33 CELLS/uL.

What about the “ABSOLUTE SEGMENTED NEUTROPHIL” value [1] of the same molecule?
Its value is 1489.33 CELLS/uL.

What about the BASOPHIL [1] of the same molecule?
The BASOPHIL was 0%.

What about the EOSINOPHIL [1] of the same molecule?
Its EOSINOPHIL is 1.33%.

And the “ERYTHROCYTE COUNT” value [1]?
The value was 5.48 x10E6/uL.

And the HEMATOCRIT [1]?
The HEMATOCRIT was 33.63%.

What about the HEMOGLOBIN [1] of the same molecule?
Its HEMOGLOBIN is 12.33 G/DL.

And the “LEUKOCYTE COUNT” value [1]?
Its value is 17.2 x10E3/uL.

And the LYMPHOCYTE [1]?
The LYMPHOCYTE was 87.33%.

What about the “MEAN CORPUSCULAR HEMOGLOBIN” value [1] of the same molecule?
The value was 22.5 pg.

What about the “MEAN CORPUSCULAR HEMOGLOBIN CONCENTRATION” value [1] of the same molecule?
The value was 36.67 G/DL.

What about the “MEAN CORPUSCULAR VOLUME” value [1] of the same molecule?
The value was 61.4 fL.

What about the MONOCYTE [1] of the same molecule?
The MONOCYTE was 2.67%.

What about the NEUTROPHIL [1] of the same molecule?
The NEUTROPHIL was 8.67%.

And the “NUCLEATED RED BLOOD CELLS” value [1]?
The value was 0 /100WBC.

What about the “PLATELET COUNT” value [1] of the same molecule?
Its value is 1124.33 x10E3/uL.

And the “ALANINE AMINOTRANSFERASE” value [1]?
The value was 50 u/L.

What about the ALBUMIN [1] of the same molecule?
The ALBUMIN was 4.2 G/DL.

And the “ALKALINE PHOSPHATASE” value [1]?
The value was 391.33 u/L.

And the “ASPARTATE AMINOTRANSFERASE” value [1]?
The value was 81 u/L.

And the “BLOOD UREA NITROGEN” value [1]?
Its value is 16 mg/dL.

What about the “CARBON DIOXIDE” value [1] of the same molecule?
The value was 28.33 mmol/L.

What about the CHLORIDE [1] of the same molecule?
The CHLORIDE was 100.33 MEQ/L.

And the CHOLESTEROL [1]?
Its CHOLESTEROL is 53.33 mg/dL.

And the CREATININE [1]?
Its CREATININE is 0.16 mg/dL.

What about the GLUCOSE [1] of the same molecule?
The GLUCOSE was 167.33 mg/dL.

And the “LACTATE DEHYDROGENASE” value [1]?
Its value is 230 u/L.

And the LIPASE [1]?
Its LIPASE is 9 u/L.

What about the PHOSPHORUS [1] of the same molecule?
The PHOSPHORUS was 12.77 mg/dL.

What about the POTASSIUM [1] of the same molecule?
Its POTASSIUM is 6.45 MEQ/L.

What about the SODIUM [1] of the same molecule?
The SODIUM was 142.9 MEQ/L.

What about the “TOTAL BILIRUBIN” value [1] of the same molecule?
Its value is 0.13 mg/dL.

And the “TOTAL PROTEIN” value [1]?
Its value is 6 G/DL.

And the “URIC ACID” value [1]?
Its value is 1.5 mg/dL.

And the “ABSOLUTE BASOPHIL” value [2]?
Its value is 0 CELLS/uL.

And the “ABSOLUTE EOSINOPHIL” value [2]?
The value was 218.33 CELLS/uL.

And the “ABSOLUTE LYMPHOCYTE” value [2]?
The value was 13655.67 CELLS/uL.

And the “ABSOLUTE MONOCYTE” value [2]?
Its value is 429.67 CELLS/uL.

And the “ABSOLUTE SEGMENTED NEUTROPHIL” value [2]?
The value was 2263 CELLS/uL.

And the BASOPHIL [2]?
Its BASOPHIL is 0%.

And the EOSINOPHIL [2]?
Its EOSINOPHIL is 1.33%.

What about the “ERYTHROCYTE COUNT” value [2] of the same molecule?
The value was 5.57 x10E6/uL.

What about the HEMATOCRIT [2] of the same molecule?
The HEMATOCRIT was 35.13%.

And the HEMOGLOBIN [2]?
The HEMOGLOBIN was 12.77 G/DL.

What about the “LEUKOCYTE COUNT” value [2] of the same molecule?
Its value is 16.57 x10E3/uL.

And the LYMPHOCYTE [2]?
The LYMPHOCYTE was 82.67%.

And the “MEAN CORPUSCULAR HEMOGLOBIN” value [2]?
The value was 22.97 pg.

What about the “MEAN CORPUSCULAR HEMOGLOBIN CONCENTRATION” value [2] of the same molecule?
Its value is 36.33 G/DL.

And the “MEAN CORPUSCULAR VOLUME” value [2]?
The value was 63.13 fL.

And the MONOCYTE [2]?
Its MONOCYTE is 2.67%.

What about the NEUTROPHIL [2] of the same molecule?
The NEUTROPHIL was 13.33%.

What about the “NUCLEATED RED BLOOD CELLS” value [2] of the same molecule?
Its value is 0 /100WBC.

What about the “PLATELET COUNT” value [2] of the same molecule?
The value was 1113.33 x10E3/uL.

And the “ALANINE AMINOTRANSFERASE” value [2]?
Its value is 92.33 u/L.

What about the ALBUMIN [2] of the same molecule?
The ALBUMIN was 4.4 G/DL.

And the “ALKALINE PHOSPHATASE” value [2]?
Its value is 526.33 u/L.

And the “ASPARTATE AMINOTRANSFERASE” value [2]?
Its value is 107.33 u/L.

And the “BLOOD UREA NITROGEN” value [2]?
The value was 14 mg/dL.

And the “CARBON DIOXIDE” value [2]?
Its value is 27.33 mmol/L.

What about the CHLORIDE [2] of the same molecule?
The CHLORIDE was 103.67 MEQ/L.

What about the CHOLESTEROL [2] of the same molecule?
Its CHOLESTEROL is 57 mg/dL.

What about the CREATININE [2] of the same molecule?
Its CREATININE is 0.24 mg/dL.

And the GLUCOSE [2]?
Its GLUCOSE is 142.67 mg/dL.

What about the “LACTATE DEHYDROGENASE” value [2] of the same molecule?
Its value is 159 u/L.

What about the LIPASE [2] of the same molecule?
The LIPASE was 9.67 u/L.

And the PHOSPHORUS [2]?
The PHOSPHORUS was 12.2 mg/dL.

What about the POTASSIUM [2] of the same molecule?
Its POTASSIUM is 7.03 MEQ/L.

And the SODIUM [2]?
The SODIUM was 148.07 MEQ/L.

What about the “TOTAL BILIRUBIN” value [2] of the same molecule?
The value was 0.2 mg/dL.

What about the “TOTAL PROTEIN” value [2] of the same molecule?
Its value is 5.93 G/DL.

And the “URIC ACID” value [2]?
The value was 1.43 mg/dL.

What about the “ABSOLUTE BASOPHIL” value [3] of the same molecule?
The value was 0 CELLS/uL.

What about the “ABSOLUTE EOSINOPHIL” value [3] of the same molecule?
Its value is 195.6 CELLS/uL.

And the “ABSOLUTE LYMPHOCYTE” value [3]?
Its value is 15442.4 CELLS/uL.

And the “ABSOLUTE MONOCYTE” value [3]?
Its value is 503.4 CELLS/uL.

And the “ABSOLUTE SEGMENTED NEUTROPHIL” value [3]?
Its value is 1838.6 CELLS/uL.

And the BASOPHIL [3]?
The BASOPHIL was 0%.

What about the EOSINOPHIL [3] of the same molecule?
Its EOSINOPHIL is 1%.

And the “ERYTHROCYTE COUNT” value [3]?
Its value is 5.64 x10E6/uL.

And the HEMATOCRIT [3]?
Its HEMATOCRIT is 33.38%.

And the HEMOGLOBIN [3]?
Its HEMOGLOBIN is 12.04 G/DL.

What about the “LEUKOCYTE COUNT” value [3] of the same molecule?
The value was 17.98 x10E3/uL.

And the LYMPHOCYTE [3]?
The LYMPHOCYTE was 86.6%.

And the “MEAN CORPUSCULAR HEMOGLOBIN” value [3]?
The value was 21.36 pg.

And the “MEAN CORPUSCULAR HEMOGLOBIN CONCENTRATION” value [3]?
Its value is 36.1 G/DL.

What about the “MEAN CORPUSCULAR VOLUME” value [3] of the same molecule?
The value was 59.2 fL.

What about the MONOCYTE [3] of the same molecule?
The MONOCYTE was 2.8%.

What about the NEUTROPHIL [3] of the same molecule?
The NEUTROPHIL was 9.6%.

And the “NUCLEATED RED BLOOD CELLS” value [3]?
The value was 0 /100WBC.

And the “PLATELET COUNT” value [3]?
Its value is 1278.6 x10E3/uL.

What about the “ALANINE AMINOTRANSFERASE” value [3] of the same molecule?
Its value is 66 u/L.

And the ALBUMIN [3]?
Its ALBUMIN is 4.06 G/DL.

And the “ALKALINE PHOSPHATASE” value [3]?
The value was 384.8 u/L.

And the “ASPARTATE AMINOTRANSFERASE” value [3]?
Its value is 92.4 u/L.

And the “BLOOD UREA NITROGEN” value [3]?
The value was 12.8 mg/dL.

And the “CARBON DIOXIDE” value [3]?
The value was 25.8 mmol/L.

And the CHLORIDE [3]?
The CHLORIDE was 102.2 MEQ/L.

And the CHOLESTEROL [3]?
Its CHOLESTEROL is 54.2 mg/dL.

And the CREATININE [3]?
The CREATININE was 0.16 mg/dL.

What about the GLUCOSE [3] of the same molecule?
Its GLUCOSE is 152.8 mg/dL.

What about the “LACTATE DEHYDROGENASE” value [3] of the same molecule?
Its value is 132.4 u/L.

What about the LIPASE [3] of the same molecule?
The LIPASE was 9 u/L.

What about the PHOSPHORUS [3] of the same molecule?
The PHOSPHORUS was 12.02 mg/dL.

And the POTASSIUM [3]?
Its POTASSIUM is 6.28 MEQ/L.

What about the SODIUM [3] of the same molecule?
The SODIUM was 142.86 MEQ/L.

And the “TOTAL BILIRUBIN” value [3]?
Its value is 0.14 mg/dL.

And the “TOTAL PROTEIN” value [3]?
The value was 5.54 G/DL.

What about the “URIC ACID” value [3] of the same molecule?
Its value is 1.78 mg/dL.
